Reference: patent publication US4396543A
In brackets after ≈: the same amount, converted by molar mass. Several values for one entry are separate records, joined by “and”; a condition that tells them apart may be missing. Identical values can stand only once.

Tests used:
[1] = system: Staphylococcus epidermidis EPI2; assay: agar-dilution MIC; type: cell-based; settings: two values = two experiments, 2 median of five, 19 median of three
[2] = system: Staphylococcus epidermidis EPI1; type: cell-based; settings: two values = two experiments, 2 median of five, 19 median of three
[3] = system: Streptococcus pyogenes C203; assay: agar-dilution MIC; type: cell-based; settings: two values = two experiments, 2 median of five, 19 median of three
[4] = system: Streptococcus pneumoniae Park I; type: cell-based; settings: two values = two experiments, 2 median of five, 19 median of three
Protocol: (§1) In Table VII activity is measured by the minimal inhibitory concentration (MIC), i.e. the lowest concentration of compound at which growth of the microorganism is inhibited by the test compound.

[5] = system: Staphylococcus aureus X400; assay: agar-dilution MIC; type: cell-based; settings: Staphylococcus aureus X400, methicillin-resistant strain; two values = two experiments; 2 median of five, 19 median of three
Protocol: as §1

[6] = system: Streptococcus Group D X66; assay: agar-dilution MIC; type: cell-based; settings: two values = two experiments, 2 median of five, 19 median of three
Protocol: as §1

toxicity test, LD50 = settings: mouse, in vivo, iv; administered intravenously; read-out: LD50 (mg/kg) in Mice
[7] = system: Staphylococcus aureus V41; assay: agar-dilution MIC; type: cell-based; settings: Staphylococcus aureus V41, penicillin-resistant strain; two values = two experiments; 2 median of five, 19 median of three
Protocol: as §1

Staphylococcus aureus = assay: in vivo experimental bacterial infection, ED50; settings: mice, two doses subcutaneously; two values = two experiments
[8] = system: Streptococcus Group D 9960; assay: agar-dilution MIC; type: cell-based; settings: two values = two experiments, 2 median of five, 19 median of three
Protocol: as §1

[9] = system: Staphylococcus aureus X1.1; assay: agar-dilution MIC; type: cell-based; settings: two values = two experiments, 2 median of five, 19 median of three experiments
Protocol: as §1

Streptococcus pyogenes = assay: in vivo experimental bacterial infection, ED50; settings: mice; for ED50 Values Streptococcus pyogenes Oral: two doses orally; for ED50 Values Streptococcus pyogenes Subcutaneous: two doses subcutaneously, two values = two experiments

SMILES	MIC [1] [µg/mL]	MIC [2] [µg/mL]	MIC [3] [µg/mL]	MIC [4] [µg/mL]	MIC [5] [µg/mL]	MIC [6] [µg/mL]	LD50 (toxicity test, LD50) [mg/kg]	MIC [7] [µg/mL]	ED50 Values Staphylococcus aureus Subcutaneous (Staphylococcus aureus)	MIC [8] [µg/mL]	MIC [9] [µg/mL]	ED50 Values Streptococcus pyogenes Oral (Streptococcus pyogenes) [mg/kg × 2]	ED50 Values Streptococcus pyogenes Subcutaneous (Streptococcus pyogenes)
CCCCCCCCCC(=O)N[C@@H](Cc1ccccc1)C(=O)N[C@@H](Cc1c[nH]c2ccccc12)C(=O)N[C@H](CC(N)=O)C(=O)N[C@@H](CC(=O)O)C(=O)N[C@@H]1C(=O)NCC(=O)N[C@@H](CCCN)C(=O)N[C@@H](CC(=O)O)C(=O)N[C@H](C)C(=O)N[C@@H](CC(=O)O)C(=O)NCC(=O)N[C@H](CO)C(=O)N[C@@H]([C@H](C)CC(=O)O)C(=O)N[C@@H](CC(=O)c2ccccc2N)C(=O)O[C@@H]1C [Compound 19, NTrp-[N-(n-Decanoyl)-L-phenylalanyl]-A-21978C Nucleus]	0.5 (≈ 0.283 µM)	1 (≈ 0.566 µM)	0.25 (≈ 0.141 µM)	0.75 (≈ 0.424 µM)	1 (≈ 0.566 µM)	8 (≈ 4.53 µM)	600	0.5 (≈ 0.283 µM)	0.7 mg/kg × 2 and 0.98 mg/kg × 2	2 (≈ 1.13 µM)	0.5 (≈ 0.283 µM)	> 200	0.39 mg/kg × 2
CCCCCCCCCCCC(=O)N[C@@H](Cc1c[nH]c2ccccc12)C(=O)N[C@@H](Cc1c[nH]c2ccccc12)C(=O)N[C@H](CC(N)=O)C(=O)N[C@@H](CC(=O)O)C(=O)N[C@@H]1C(=O)NCC(=O)N[C@@H](CCCN)C(=O)N[C@@H](CC(=O)O)C(=O)N[C@H](C)C(=O)N[C@@H](CC(=O)O)C(=O)NCC(=O)N[C@H](CO)C(=O)N[C@@H]([C@H](C)CC(=O)O)C(=O)N[C@@H](CC(=O)c2ccccc2N)C(=O)O[C@@H]1C [Compound 24]	4 (≈ 2.18 µM)	4 (≈ 2.18 µM)	2 (≈ 1.09 µM)	1 (≈ 0.545 µM)	4 (≈ 2.18 µM)	16 (≈ 8.72 µM)	450	2 (≈ 1.09 µM)	2.3 mg/kg × 2	4 (≈ 2.18 µM)	1 (≈ 0.545 µM)	> 200	
CCCCCCCCCCCC(=O)Nc1cccc(C(=O)N[C@@H](Cc2c[nH]c3ccccc23)C(=O)N[C@H](CC(N)=O)C(=O)N[C@@H](CC(=O)O)C(=O)N[C@@H]2C(=O)NCC(=O)N[C@@H](CCCN)C(=O)N[C@@H](CC(=O)O)C(=O)N[C@H](C)C(=O)N[C@@H](CC(=O)O)C(=O)NCC(=O)N[C@H](CO)C(=O)N[C@@H]([C@H](C)CC(=O)O)C(=O)N[C@@H](CC(=O)c3ccccc3N)C(=O)O[C@@H]2C)c1 [Compound 5]	1 (≈ 0.566 µM)	2 (≈ 1.13 µM)	0.25 (≈ 0.141 µM)	0.25 (≈ 0.141 µM)	1 (≈ 0.566 µM)	4 (≈ 2.26 µM)	277	0.5 (≈ 0.283 µM)	1.67 mg/kg × 2	1 (≈ 0.566 µM)	0.5 (≈ 0.283 µM)	> 200	> 0.25 mg/kg × 2 and 0.46 mg/kg × 2
CCCCCCCCCCCC(=O)Nc1ccc(C(=O)N[C@@H](Cc2c[nH]c3ccccc23)C(=O)N[C@H](CC(N)=O)C(=O)N[C@@H](CC(=O)O)C(=O)N[C@@H]2C(=O)NCC(=O)N[C@@H](CCCN)C(=O)N[C@@H](CC(=O)O)C(=O)N[C@H](C)C(=O)N[C@@H](CC(=O)O)C(=O)NCC(=O)N[C@H](CO)C(=O)N[C@@H]([C@H](C)CC(=O)O)C(=O)N[C@@H](CC(=O)c3ccccc3N)C(=O)O[C@@H]2C)cc1 [Compound 4]					8 (≈ 4.53 µM)		> 300		< 5 mg/kg × 2		4 (≈ 2.26 µM)	> 200	18.8 mg/kg × 2
CCCCCCCCCCCC(=O)N[C@H](Cc1ccccc1)C(=O)N[C@@H](Cc1c[nH]c2ccccc12)C(=O)N[C@H](CC(N)=O)C(=O)N[C@@H](CC(=O)O)C(=O)N[C@@H]1C(=O)NCC(=O)N[C@@H](CCCN)C(=O)N[C@@H](CC(=O)O)C(=O)N[C@H](C)C(=O)N[C@@H](CC(=O)O)C(=O)NCC(=O)N[C@H](CO)C(=O)N[C@@H]([C@H](C)CC(=O)O)C(=O)N[C@@H](CC(=O)c2ccccc2N)C(=O)O[C@@H]1C [Compound 1]	1 (≈ 0.557 µM)	2 (≈ 1.11 µM)	0.125 (≈ 0.0696 µM)		1 (≈ 0.557 µM)	1 (≈ 0.557 µM)	250	0.5 (≈ 0.278 µM)	1.4 mg/kg × 2 and 2.05 mg/kg × 2	0.5 (≈ 0.278 µM)	0.5 (≈ 0.278 µM)	> 200	< 0.25 mg/kg × 2 and 0.21 mg/kg × 2
CCCCCCCC(=O)N[C@@H](Cc1ccccc1)C(=O)N[C@@H](Cc1c[nH]c2ccccc12)C(=O)N[C@H](CC(N)=O)C(=O)N[C@@H](CC(=O)O)C(=O)N[C@@H]1C(=O)NCC(=O)N[C@@H](CCCN)C(=O)N[C@@H](CC(=O)O)C(=O)N[C@H](C)C(=O)N[C@@H](CC(=O)O)C(=O)NCC(=O)N[C@H](CO)C(=O)N[C@@H]([C@H](C)CC(=O)O)C(=O)N[C@@H](CC(=O)c2ccccc2N)C(=O)O[C@@H]1C [Compound 17]	8 (≈ 4.6 µM)	8 (≈ 4.6 µM)	2 (≈ 1.15 µM)		8 (≈ 4.6 µM)	128 (≈ 73.6 µM)	450	8 (≈ 4.6 µM)	2.58 mg/kg × 2	32 (≈ 18.4 µM)	4 (≈ 2.3 µM)	> 200	1.48 mg/kg × 2
CCCCCCCCCCC(=O)N[C@@H](Cc1ccccc1)C(=O)N[C@@H](Cc1c[nH]c2ccccc12)C(=O)N[C@H](CC(N)=O)C(=O)N[C@@H](CC(=O)O)C(=O)N[C@@H]1C(=O)NCC(=O)N[C@@H](CCCN)C(=O)N[C@@H](CC(=O)O)C(=O)N[C@H](C)C(=O)N[C@@H](CC(=O)O)C(=O)NCC(=O)N[C@H](CO)C(=O)N[C@@H]([C@H](C)CC(=O)O)C(=O)N[C@@H](CC(=O)c2ccccc2N)C(=O)O[C@@H]1C [Compound 20]	2 (≈ 1.12 µM)	2 (≈ 1.12 µM)	0.125 (≈ 0.0701 µM)		2 (≈ 1.12 µM)	4 (≈ 2.24 µM)	400	0.5 (≈ 0.281 µM)	1.25 mg/kg × 2	2 (≈ 1.12 µM)	0.5 (≈ 0.281 µM)	> 200	0.35 mg/kg × 2
CCCCCCCCC(=O)N[C@@H](Cc1ccccc1)C(=O)N[C@@H](Cc1c[nH]c2ccccc12)C(=O)N[C@H](CC(N)=O)C(=O)N[C@@H](CC(=O)O)C(=O)N[C@@H]1C(=O)NCC(=O)N[C@@H](CCCN)C(=O)N[C@@H](CC(=O)O)C(=O)N[C@H](C)C(=O)N[C@@H](CC(=O)O)C(=O)NCC(=O)N[C@H](CO)C(=O)N[C@@H]([C@H](C)CC(=O)O)C(=O)N[C@@H](CC(=O)c2ccccc2N)C(=O)O[C@@H]1C [Compound 18]	2 (≈ 1.14 µM)	4 (≈ 2.28 µM)	0.5 (≈ 0.285 µM)		4 (≈ 2.28 µM)	32 (≈ 18.2 µM)	> 600	2 (≈ 1.14 µM)	1.38 mg/kg × 2	8 (≈ 4.56 µM)	2 (≈ 1.14 µM)	184	0.59 mg/kg × 2
